{
  "source": "patent US10624897B2",
  "about": "“Chlorobenzene substituted azaaryl compounds” (TAIPEI MEDICAL UNIVERSITY, priority 2015, dated 2020)",
  "key": {"INSR": {"biological_target": "T1, INSR (Homo sapiens, UniProt P06213)", "T1 construct": "made in house; host or cells: E. coli BL21-derived host (T7 phage) for most kinases, HEK-293 for the rest", "T1 sequence (P06213 28-1382)": "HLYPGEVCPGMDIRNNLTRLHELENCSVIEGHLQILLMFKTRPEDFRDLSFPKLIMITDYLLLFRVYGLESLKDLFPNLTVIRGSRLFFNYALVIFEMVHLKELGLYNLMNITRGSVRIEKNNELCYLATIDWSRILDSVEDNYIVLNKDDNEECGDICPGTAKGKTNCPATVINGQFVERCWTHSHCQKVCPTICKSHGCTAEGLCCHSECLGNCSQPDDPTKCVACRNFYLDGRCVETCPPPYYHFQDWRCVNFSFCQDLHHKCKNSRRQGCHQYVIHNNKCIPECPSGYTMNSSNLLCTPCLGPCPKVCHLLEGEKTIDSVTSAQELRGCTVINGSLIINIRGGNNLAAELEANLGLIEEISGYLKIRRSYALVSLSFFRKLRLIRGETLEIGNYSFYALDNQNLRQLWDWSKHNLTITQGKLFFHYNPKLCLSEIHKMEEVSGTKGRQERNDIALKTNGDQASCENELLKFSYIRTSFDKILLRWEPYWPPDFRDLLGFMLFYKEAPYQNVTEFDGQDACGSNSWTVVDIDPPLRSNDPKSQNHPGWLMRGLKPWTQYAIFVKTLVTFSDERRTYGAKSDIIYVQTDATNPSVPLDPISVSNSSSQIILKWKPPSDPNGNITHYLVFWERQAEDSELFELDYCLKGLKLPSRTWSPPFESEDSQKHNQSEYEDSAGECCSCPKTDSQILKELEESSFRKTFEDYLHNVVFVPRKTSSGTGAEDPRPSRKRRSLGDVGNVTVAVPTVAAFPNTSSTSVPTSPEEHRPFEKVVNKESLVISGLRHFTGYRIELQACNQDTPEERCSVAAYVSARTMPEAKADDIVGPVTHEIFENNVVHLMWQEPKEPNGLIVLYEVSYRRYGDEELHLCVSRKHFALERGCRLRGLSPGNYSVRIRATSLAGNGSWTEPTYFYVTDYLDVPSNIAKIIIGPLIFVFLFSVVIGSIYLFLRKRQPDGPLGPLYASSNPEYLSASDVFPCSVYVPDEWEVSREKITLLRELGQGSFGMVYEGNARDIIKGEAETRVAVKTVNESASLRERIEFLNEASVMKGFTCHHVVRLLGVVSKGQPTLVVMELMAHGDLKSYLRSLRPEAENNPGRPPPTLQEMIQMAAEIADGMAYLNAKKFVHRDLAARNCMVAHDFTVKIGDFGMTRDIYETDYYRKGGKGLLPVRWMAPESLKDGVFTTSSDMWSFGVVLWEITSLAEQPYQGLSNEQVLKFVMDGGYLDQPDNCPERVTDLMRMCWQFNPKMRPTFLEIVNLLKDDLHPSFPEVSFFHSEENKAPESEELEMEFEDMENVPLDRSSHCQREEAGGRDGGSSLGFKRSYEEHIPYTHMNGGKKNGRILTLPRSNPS", "assay": "Kinase binding assay (Kd)", "method": "(§1) Kinase assays. For most assays, kinase-tagged T7 phage strains were prepared in an E. coli host derived from the BL21 strain. E. coli were grown to log-phase and infected with T7 phage and incubated with shaking at 32° C. until lysis. The lysates were centrifuged and filtered to remove cell debris. The remaining kinases were produced in HEK-293 cells and subsequently tagged with DNA for qPCR detection. […] The liganded beads were blocked with excess biotin and washed with blocking buffer (SeaBlock (Pierce), 1% BSA, 0.05% Tween 20, 1 mM DTT) to remove unbound ligand and to reduce non-specific binding. […] All reactions were performed in polystyrene 96-well plates in a final volume of 0.135 ml. […] The kinase concentration in the eluates was measured by qPCR.\n(§2) An 11-point 3-fold serial dilution of each test compound was prepared in 100% DMSO at 100× final test concentration and subsequently diluted to 1× in the assay (final DMSO concentration=1%). Most Kds were determined using a compound top concentration=30,000 nM.\n(§3) Binding constants (Kds) were calculated with a standard dose-response curve using the Hill equation: […]\n(§4) The Hill Slope was set to −1. Curves were fitted using a non-linear least square fit with the Levenberg-Marquardt algorithm."}, "PIK3CA": {"biological_target": "T2, PIK3CA (Homo sapiens, UniProt P42336)", "T2 construct": "made in house; host or cells: E. coli BL21-derived host (T7 phage) for most kinases, HEK-293 for the rest", "assay": "Kinase binding assay (Kd)", "method": "as §1, §2, §3, §4"}, "MEK1": {"biological_target": "T3, MEK1 (Homo sapiens, UniProt Q02750)", "T3 construct": "made in house; host or cells: E. coli BL21-derived host (T7 phage) for most kinases, HEK-293 for the rest", "assay": "Kinase binding assay (Kd)", "method": "as §1, §2, §3, §4"}, "FAK": {"biological_target": "T4, FAK (Homo sapiens, UniProt Q05397)", "T4 construct": "made in house; host or cells: E. coli BL21-derived host (T7 phage) for most kinases, HEK-293 for the rest", "assay": "Kinase binding assay (Kd)", "method": "as §1, §2, §3, §4"}, "BTK": {"biological_target": "T5, BTK (Homo sapiens, UniProt Q06187)", "T5 construct": "made in house; host or cells: E. coli BL21-derived host (T7 phage) or HEK-293", "assay": "Kinase binding assay (Kd)", "method": "as §1, §2, §3, §4"}, "MEK2": {"biological_target": "T6, MEK2 (Homo sapiens, UniProt P36507)", "T6 construct": "made in house; host or cells: E. coli BL21-derived host (T7 phage) for most kinases, HEK-293 for the rest", "assay": "Kinase binding assay (Kd)", "method": "as §1, §2, §3, §4"}, "MKNK2": {"biological_target": "T7, MKNK2 (Homo sapiens, UniProt Q9HBH9)", "T7 construct": "made in house; host or cells: E. coli BL21-derived host (T7 phage) for most kinases, HEK-293 for the rest", "assay": "Kinase binding assay (Kd)", "method": "as §1, §2, §3, §4"}, "MET": {"biological_target": "T8, MET (Homo sapiens, UniProt P08581)", "T8 construct": "made in house; host or cells: E. coli BL21-derived host (T7 phage) for most kinases, HEK-293 for the rest", "T8 sequence (P08581 25-1390)": "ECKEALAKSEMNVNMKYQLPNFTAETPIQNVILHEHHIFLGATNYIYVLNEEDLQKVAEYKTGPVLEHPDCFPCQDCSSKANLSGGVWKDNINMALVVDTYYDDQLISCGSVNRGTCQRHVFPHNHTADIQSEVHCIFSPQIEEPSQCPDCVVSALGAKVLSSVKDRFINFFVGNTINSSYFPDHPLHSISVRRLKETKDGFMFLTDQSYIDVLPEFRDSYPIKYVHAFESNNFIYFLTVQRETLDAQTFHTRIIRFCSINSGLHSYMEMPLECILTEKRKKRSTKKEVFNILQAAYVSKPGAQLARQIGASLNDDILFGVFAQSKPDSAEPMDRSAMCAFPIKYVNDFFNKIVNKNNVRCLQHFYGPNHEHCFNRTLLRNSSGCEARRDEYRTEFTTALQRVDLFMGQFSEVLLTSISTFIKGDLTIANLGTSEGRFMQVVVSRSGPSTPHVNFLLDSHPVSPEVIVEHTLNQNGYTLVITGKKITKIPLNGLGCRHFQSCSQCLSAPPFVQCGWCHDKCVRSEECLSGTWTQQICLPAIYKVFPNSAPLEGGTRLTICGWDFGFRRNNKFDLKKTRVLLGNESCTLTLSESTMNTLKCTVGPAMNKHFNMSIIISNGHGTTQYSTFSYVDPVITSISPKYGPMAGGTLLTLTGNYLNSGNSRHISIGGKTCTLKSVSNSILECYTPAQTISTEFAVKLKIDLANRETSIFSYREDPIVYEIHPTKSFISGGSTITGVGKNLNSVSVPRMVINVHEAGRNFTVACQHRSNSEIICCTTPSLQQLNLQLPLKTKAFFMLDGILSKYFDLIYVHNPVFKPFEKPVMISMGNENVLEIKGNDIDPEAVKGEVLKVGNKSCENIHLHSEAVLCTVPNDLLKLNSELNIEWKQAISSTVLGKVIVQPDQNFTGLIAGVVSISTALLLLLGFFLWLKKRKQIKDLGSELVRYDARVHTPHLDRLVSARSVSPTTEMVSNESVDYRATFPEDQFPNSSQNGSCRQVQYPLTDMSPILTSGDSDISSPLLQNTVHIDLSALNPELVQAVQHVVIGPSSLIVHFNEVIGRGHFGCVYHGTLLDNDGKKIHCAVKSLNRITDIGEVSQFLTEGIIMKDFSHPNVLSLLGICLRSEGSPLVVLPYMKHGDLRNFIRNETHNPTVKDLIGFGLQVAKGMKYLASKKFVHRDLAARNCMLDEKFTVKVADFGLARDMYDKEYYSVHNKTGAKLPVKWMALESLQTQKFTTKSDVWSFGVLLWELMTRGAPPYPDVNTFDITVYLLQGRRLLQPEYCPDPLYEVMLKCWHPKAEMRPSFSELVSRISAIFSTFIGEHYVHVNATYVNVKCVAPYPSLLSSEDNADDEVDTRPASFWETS", "assay": "Kinase binding assay (Kd)", "method": "as §1, §2, §3, §4"}, "ZAP70": {"biological_target": "T9, ZAP70 (Homo sapiens, UniProt P43403)", "T9 construct": "made in house; host or cells: E. coli BL21-derived host (T7 phage) or HEK-293", "assay": "Kinase binding assay (Kd)", "method": "as §1, §2, §3, §4"}, "CDK9": {"biological_target": "T10, CDK9 (Homo sapiens, UniProt P50750)", "T10 construct": "made in house; host or cells: E. coli BL21-derived host (T7 phage) or HEK-293", "assay": "Kinase binding assay (Kd)", "method": "as §1, §2, §3, §4"}, "BRAF": {"biological_target": "T11, BRAF (Homo sapiens, UniProt P15056)", "T11 construct": "made in house; host or cells: E. coli BL21-derived host (T7 phage) or HEK-293", "assay": "Kinase binding assay (Kd)", "method": "as §1, §2, §3, §4"}, "p38-alpha": {"biological_target": "T12, p38-alpha (Homo sapiens, UniProt Q16539)", "T12 construct": "made in house; host or cells: E. coli BL21-derived host (T7 phage) for most kinases, HEK-293 for the rest", "assay": "Kinase binding assay (Kd)", "method": "as §1, §2, §3, §4"}, "MKNK1": {"biological_target": "T13, MKNK1 (Homo sapiens, UniProt Q9BUB5)", "T13 construct": "made in house; host or cells: E. coli BL21-derived host (T7 phage) for most kinases, HEK-293 for the rest", "assay": "Kinase binding assay (Kd)", "method": "as §1, §2, §3, §4"}, "VEGFR2": {"biological_target": "T14, VEGFR2 (Homo sapiens, UniProt P35968)", "T14 construct": "made in house; host or cells: E. coli BL21-derived host (T7 phage) or HEK-293", "T14 sequence (P35968 20-1356)": "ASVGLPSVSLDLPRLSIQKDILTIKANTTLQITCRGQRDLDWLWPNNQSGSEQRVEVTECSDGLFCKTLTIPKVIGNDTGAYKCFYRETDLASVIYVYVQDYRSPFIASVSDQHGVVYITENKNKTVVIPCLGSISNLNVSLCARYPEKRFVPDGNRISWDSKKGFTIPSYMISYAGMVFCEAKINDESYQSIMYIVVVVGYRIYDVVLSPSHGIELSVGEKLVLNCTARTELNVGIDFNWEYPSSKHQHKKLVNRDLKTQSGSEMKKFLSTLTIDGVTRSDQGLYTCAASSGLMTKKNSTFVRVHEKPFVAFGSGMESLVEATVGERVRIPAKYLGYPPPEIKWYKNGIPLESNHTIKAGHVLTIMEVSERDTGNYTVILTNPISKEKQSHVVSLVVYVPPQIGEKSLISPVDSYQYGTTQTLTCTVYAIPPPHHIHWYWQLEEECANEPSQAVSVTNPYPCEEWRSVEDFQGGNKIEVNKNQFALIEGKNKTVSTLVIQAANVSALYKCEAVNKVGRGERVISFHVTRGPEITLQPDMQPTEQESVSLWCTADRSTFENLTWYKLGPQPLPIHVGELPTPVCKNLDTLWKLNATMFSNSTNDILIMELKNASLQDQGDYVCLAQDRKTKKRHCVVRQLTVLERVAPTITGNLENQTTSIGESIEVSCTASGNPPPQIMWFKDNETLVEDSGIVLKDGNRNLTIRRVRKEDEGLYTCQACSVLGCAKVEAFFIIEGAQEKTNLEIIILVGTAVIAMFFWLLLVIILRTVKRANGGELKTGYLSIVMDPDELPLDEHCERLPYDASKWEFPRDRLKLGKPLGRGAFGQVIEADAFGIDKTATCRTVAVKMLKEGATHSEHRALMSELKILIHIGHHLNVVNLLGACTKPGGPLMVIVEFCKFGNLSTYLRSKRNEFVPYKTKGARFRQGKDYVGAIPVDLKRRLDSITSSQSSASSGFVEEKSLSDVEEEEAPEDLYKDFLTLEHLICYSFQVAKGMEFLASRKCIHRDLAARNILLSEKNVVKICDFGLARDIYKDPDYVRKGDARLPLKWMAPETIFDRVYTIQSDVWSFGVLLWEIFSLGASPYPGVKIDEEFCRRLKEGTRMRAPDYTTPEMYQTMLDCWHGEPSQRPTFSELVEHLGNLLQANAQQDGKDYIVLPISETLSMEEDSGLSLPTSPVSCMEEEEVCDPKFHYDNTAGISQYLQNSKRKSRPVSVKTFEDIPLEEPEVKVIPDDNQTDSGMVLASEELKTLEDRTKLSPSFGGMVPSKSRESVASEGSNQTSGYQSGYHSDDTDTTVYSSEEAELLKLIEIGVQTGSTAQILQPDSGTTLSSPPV", "assay": "Kinase binding assay (Kd)", "method": "as §1, §2, §3, §4"}, "p38-beta": {"biological_target": "T15, p38-beta (Homo sapiens, UniProt Q15759)", "T15 construct": "made in house; host or cells: E. coli BL21-derived host (T7 phage) for most kinases, HEK-293 for the rest", "assay": "Kinase binding assay (Kd)", "method": "as §1, §2, §3, §4"}, "YANK3": {"biological_target": "T16, YANK3 (Homo sapiens, UniProt Q86UX6)", "T16 construct": "made in house; host or cells: E. coli BL21-derived host (T7 phage) or HEK-293", "assay": "Kinase binding assay (Kd)", "method": "as §1, §2, §3, §4"}, "FGFR signaling": {"tested_on": "FGFR signaling", "assay": "Western blot of FGFR signaling in RT-112 cells", "type": "cell-based", "description": "BGJ-398, a known selective inhibitor of FGFR1 to FGFR3, was included as a reference compound. […] The major downstream pathways of FGFRs are MAPK, PI3K/AKT, and PLC-γ. RT-112 cells, which express FGFR3-TACC3, are reportedly unable to activate PLCγ due to a deletion of the last exon of FGFR3."}, "RT-112 cells": {"tested_on": "RT-112 cells", "assay": "Western blot of G0/G1 regulatory proteins", "type": "cell-based", "settings": "24 h, FIG. 3C", "method": "C. […] Apoptosis was assessed via detection of cleaved caspase-3 and PARP.\nWe observed that genes associated with cell cycle progression were decreased in MPT0L145-treated cells. […] This phenomenon was also observed in the cells treated with BGJ-398 (FIG. 3A). […] Next, we examined expression of G0/G1 regulatory proteins via western blot. […] The possibility of MPT0L145-induced apoptosis was further eliminated by examining cleavage of caspase-3 and its substrate, PARP, in 72 h, compared with paclitaxel (FIG. 3D)."}, "FGFR3(G697C)": {"biological_target": "T17, FGFR3(G697C) (Homo sapiens, UniProt P22607, G697C)", "T17 construct": "made in house; host or cells: E. coli BL21-derived host (T7 phage) or HEK-293", "T17 sequence (P22607 23-806 G697C)": "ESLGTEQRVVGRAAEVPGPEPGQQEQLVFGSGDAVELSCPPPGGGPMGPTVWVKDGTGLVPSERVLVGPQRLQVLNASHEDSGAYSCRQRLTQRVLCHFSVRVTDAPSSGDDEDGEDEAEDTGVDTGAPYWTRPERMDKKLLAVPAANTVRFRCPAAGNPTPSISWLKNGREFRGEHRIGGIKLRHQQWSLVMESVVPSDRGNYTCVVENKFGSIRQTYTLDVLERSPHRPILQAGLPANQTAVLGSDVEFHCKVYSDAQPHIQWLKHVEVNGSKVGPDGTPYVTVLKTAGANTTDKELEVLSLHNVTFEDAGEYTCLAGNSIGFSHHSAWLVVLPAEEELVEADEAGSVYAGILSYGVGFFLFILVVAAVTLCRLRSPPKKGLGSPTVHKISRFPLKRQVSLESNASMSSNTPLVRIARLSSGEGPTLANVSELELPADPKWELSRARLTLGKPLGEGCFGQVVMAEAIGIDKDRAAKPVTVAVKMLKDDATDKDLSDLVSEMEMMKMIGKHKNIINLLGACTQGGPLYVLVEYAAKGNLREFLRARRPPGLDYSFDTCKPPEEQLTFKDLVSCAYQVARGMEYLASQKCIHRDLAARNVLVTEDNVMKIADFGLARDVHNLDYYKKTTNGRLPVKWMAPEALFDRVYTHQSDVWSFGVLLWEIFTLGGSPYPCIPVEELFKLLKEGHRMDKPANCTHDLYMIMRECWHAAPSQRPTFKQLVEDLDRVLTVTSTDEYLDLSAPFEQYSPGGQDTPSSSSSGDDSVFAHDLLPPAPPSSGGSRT", "assay": "Kinase binding assay (Kd), mutant FGFR3", "method": "as §1, §2, §3, §4\n(§5) The compound and assay method are similar to those mentioned in Example 45."}, "FGFR3(K650E)": {"biological_target": "T18, FGFR3(K650E) (Homo sapiens, UniProt P22607, K650E)", "T18 construct": "made in house; host or cells: E. coli BL21-derived host (T7 phage) or HEK-293", "T18 sequence (P22607 23-806 K650E)": "as the sequence (P22607 23-806 G697C) above, with K628E, C675G counted along it", "assay": "Kinase binding assay (Kd), mutant FGFR3", "method": "as §1, §2, §3, §4, §5"}, "FGFR3(V555M)": {"biological_target": "T19, FGFR3(V555M) (Homo sapiens, UniProt P22607, V555M)", "T19 construct": "made in house; host or cells: E. coli BL21-derived host (T7 phage) or HEK-293", "T19 sequence (P22607 23-806 V555M)": "as the sequence (P22607 23-806 G697C) above, with V533M, C675G counted along it", "assay": "Kinase binding assay (Kd), mutant FGFR3", "method": "as §1, §2, §3, §4, §5"}, "RT-112 tumor xenografts": {"tested_on": "RT-112 tumor xenografts", "settings": "for Tumor growth inhibition (%): i.p., nude mice", "quoted_text": "Eight-week-old female athymic nude mice were group-housed in the TMU Laboratory Animal Center (Taipei, Taiwan) under conditions of constant photoperiod (12 h light/12 h dark at 21-0023° C. and 60-85% humidity) with ad libitum access to sterilized food and water. […] Tumors were measured weekly using calipers. Tumor volume (mm3) was calculated from w2×½ (w=width, 1=length in mm of the tumor)."}, "FGFR3": {"biological_target": "T20, FGFR3 (Homo sapiens, UniProt P22607)", "T20 construct": "made in house; host or cells: E. coli BL21-derived host (T7 phage) or HEK-293", "T20 sequence (P22607 23-806)": "as the sequence (P22607 23-806 G697C) above, with C675G counted along it", "assay": "Kinase binding assay (Kd)", "settings": "FGFR3 (wild-type)", "method": "as §1, §2, §3, §4, §5"}},
  "note": "Where “and” joins values, the source holds several entries; their conditions need not be identical. Equal values may be shown once. Read-outs that look alike come from different tables or passages of the source.",
  "data": [
    {"compound": "CCN1CCN(c2ccc(Nc3ncnc(N(C)C(=O)Nc4c(Cl)c(OC)c(Cl)c(OC)c4Cl)n3)cc2)CC1", "note": "[MPT0L145, 1-(4-((4-(4-ethylpiperazin-1-yl)phenyl)amino)-1,3,5-triazin-2-yl)-1-methyl-3-(2,4,6-trichloro-3,5-dimethoxyphenyl)urea]", "values": [
      {"measurement": "Kd", "setting": "INSR", "value": "> 10", "unit": "µM"},
      {"measurement": "Kd", "setting": "PIK3CA", "value": "> 10", "unit": "µM"},
      {"measurement": "Kd", "setting": "MEK1", "value": "> 10", "unit": "µM"},
      {"measurement": "Kd", "setting": "FAK", "value": "> 10", "unit": "µM"},
      {"measurement": "Kd", "setting": "BTK", "value": "> 10", "unit": "µM"},
      {"measurement": "Kd", "setting": "MEK2", "value": "> 10", "unit": "µM"},
      {"measurement": "Kd", "setting": "MKNK2", "value": "> 10", "unit": "µM"},
      {"measurement": "Kd", "setting": "MET", "value": "> 10", "unit": "µM"},
      {"measurement": "Kd", "setting": "ZAP70", "value": "> 10", "unit": "µM"},
      {"measurement": "Kd", "setting": "CDK9", "value": "> 10", "unit": "µM"},
      {"measurement": "Kd", "setting": "BRAF", "value": "> 10", "unit": "µM"},
      {"measurement": "Kd", "setting": "p38-alpha", "value": "> 10", "unit": "µM"},
      {"measurement": "Kd", "setting": "MKNK1", "value": "> 10", "unit": "µM"},
      {"measurement": "Kd", "setting": "VEGFR2", "value": 3.1, "unit": "µM"},
      {"measurement": "Kd", "setting": "p38-beta", "value": "> 10", "unit": "µM"},
      {"measurement": "Kd", "setting": "YANK3", "value": "> 10", "unit": "µM"},
      {"measurement": "inhibiting AKT phosphorylation", "setting": "FGFR signaling; 1 to 4 h, FIG. 2B, 2C", "value": "better potency than BGJ-398"},
      {"measurement": "auto-phosphorylation of FGFR1 and FGFR3 and docking protein FRS2", "setting": "FGFR signaling; 1 h, FIG. 2A", "value": "exerted inhibitory activity"},
      {"measurement": "phosphorylation of ERK", "setting": "FGFR signaling; 1 h, concentration-dependent, FIG. 2B", "value": "inhibited"},
      {"measurement": "phosphorylation of ERK and AKT", "setting": "FGFR signaling; 8 h, FIG. 2D", "value": "fully repressed"},
      {"measurement": "cyclin E levels", "setting": "RT-112 cells", "value": "marked decrease"},
      {"measurement": "p16 level", "setting": "RT-112 cells", "value": "slight increase"},
      {"measurement": "Kd", "setting": "FGFR3(G697C)", "value": 0.39, "unit": "µM"},
      {"measurement": "Kd", "setting": "FGFR3(K650E)", "value": 0.24, "unit": "µM"},
      {"measurement": "Kd", "setting": "FGFR3(V555M)", "value": "> 10", "unit": "µM"},
      {"measurement": "Tumor growth inhibition (%)", "setting": "RT-112 tumor xenografts; 5 mg/kg/d", "value": 61.4, "unit": "%"},
      {"measurement": "Tumor growth inhibition (%)", "setting": "RT-112 tumor xenografts; 10 mg/kg/d", "value": 74.6, "unit": "%"},
      {"measurement": "tumor growth", "setting": "RT-112 tumor xenografts; 5 and 10 mg/kg/d i.p., dose-dependent", "value": "significantly suppressed tumor growth"},
      {"measurement": "Kd", "setting": "FGFR3", "value": "0.27 µM and 0.39 µM"}
    ]}
  ]
}
